Measurements taken from patent US20070197646A1, “SUBSTITUTED TARAXASTANES USEFUL FOR TREATING VIRAL INFECTIONS” (ACHILLION PHARMACEUTICALS, INC., priority 2006, published 2007).

Columns and labels:
[1] = test system: mock-infected cells; assay: Assessment of cytotoxicity (cell viability in parallel); assay type: cell-based
Protocol: (§1) Virology studies are preformed to assess the antiviral potency substituted heterobetulinic acids. The antiviral effect of these compounds is evaluated by parallel studies of inhibition of viral replication and cell viability. Viruses and cells for use in these assays may be obtained from the NIH AIDS Reagent Program.
Plates are incubated at 37° C. in a humidified CO2 incubator for six days. Following incubation of the HIV-1 infected cells with the compound cell viability is assessed using a calorimetric assay of metabolic activity, such as an XTT, MTT or WST-1 assay, or a BrdU incorporation assay. Cytotoxicity of the compound is determined in parallel by measurement of the viability of mock-infected cells treated with the compound. Uninfected cells without compounds are used for a 100% viability control. Infected cells to which no compound is added provide a value for 100% of cell death due to viral infection. The number of surviving or viable cells is quantified by a tetrazolium-based colorimetric method using the CellTiter96 reagent (Promega, Madison, Wis.).

[2] = test system: HIV-1; assay: Inhibition of early phase virus replication (MAGI cell β-gal indicator assay); assay type: cell-based; settings: Human immunodeficiency virus 1; MAGI cells, MOI of 0.00125
Protocol: as §1
The effect of compounds on the early phase virus replication, from virus particle attachment through early gene, Tat expression, are evaluated using a CD4-positive LTR-β-galatosidase-expressing HeLa (MAGI) cell indicator line. This assay, described previously to assess the level of β-gal expression, has been modified and adopted in our laboratory. β-gal levels are quantified by photon detection assay, with virus infected cells that are not treated with a capsid formation inhibitor giving the highest level of expression. […]
MAGI Cells are trypsinization and counted using the trepan blue exclusion method, and resuspended at a pre-determined concentration (usually 2×10^4 cells/well) in 10% FBS complete RPMI 1640. […]
The viruses are diluted to a pre-determined MOI/well, typically 0.01 to 1, in Pre-MAGI media plus 20 μg/well DEAE-dextran. […]
Plates are incubated at room temperature (25° C.) for 60-90 minutes or until constant light emission is reached. Plate(s) are read in a luminometer and measured for 0.1-1.0 sec/well.

| SMILES | cytotoxicity [1] | EC50 [2] [nM] |
| --- | --- | --- |
| CC1=CC[C@]2(CO)CC[C@]3(C)[C@H](CC[C@@H]4[C@@]5(C)CC[C@H](OC(=O)CC(C)(C)C(=O)O)C(C)(C)[C@@H]5CC[C@]43C)[C@H]2[C@@H]1C [Compound 12] | Neither compound was cytotoxic | < 100 |
| CC1=CC[C@]2(C(=O)O)CC[C@]3(C)[C@H](CC[C@@H]4[C@@]5(C)CCC(OC(=O)CC(C)(C)C(=O)O)C(C)(C)[C@@H]5CC[C@]43C)[C@H]2[C@@H]1C (stereo partly shown) [Compound 11] | Neither compound was cytotoxic | < 2000 |
